Results as given in patent US12643867B2, “Compositions and uses thereof” (University of Virginia Patent Foundation, priority 2017, dated 2026).

What was measured:
Assay in all cases: SILAC LC-MS ATP acyl phosphate probe competition, native kinases in HEK293T
Format in all cases: binding
[1] = target: T1, M3K4 (Mitogen-activated protein kinase kinase kinase 4) (Homo sapiens, UniProt Q9Y6R4); settings: site Lys2; ATP 1 mM; Ketanserin, Ritanserin 100 μM; RF001 1 mM
T1 construct: Native kinases; endogenous in cells; host or cells: HEK293T soluble proteome
T1 sequence (Q9Y6R4 whole entry): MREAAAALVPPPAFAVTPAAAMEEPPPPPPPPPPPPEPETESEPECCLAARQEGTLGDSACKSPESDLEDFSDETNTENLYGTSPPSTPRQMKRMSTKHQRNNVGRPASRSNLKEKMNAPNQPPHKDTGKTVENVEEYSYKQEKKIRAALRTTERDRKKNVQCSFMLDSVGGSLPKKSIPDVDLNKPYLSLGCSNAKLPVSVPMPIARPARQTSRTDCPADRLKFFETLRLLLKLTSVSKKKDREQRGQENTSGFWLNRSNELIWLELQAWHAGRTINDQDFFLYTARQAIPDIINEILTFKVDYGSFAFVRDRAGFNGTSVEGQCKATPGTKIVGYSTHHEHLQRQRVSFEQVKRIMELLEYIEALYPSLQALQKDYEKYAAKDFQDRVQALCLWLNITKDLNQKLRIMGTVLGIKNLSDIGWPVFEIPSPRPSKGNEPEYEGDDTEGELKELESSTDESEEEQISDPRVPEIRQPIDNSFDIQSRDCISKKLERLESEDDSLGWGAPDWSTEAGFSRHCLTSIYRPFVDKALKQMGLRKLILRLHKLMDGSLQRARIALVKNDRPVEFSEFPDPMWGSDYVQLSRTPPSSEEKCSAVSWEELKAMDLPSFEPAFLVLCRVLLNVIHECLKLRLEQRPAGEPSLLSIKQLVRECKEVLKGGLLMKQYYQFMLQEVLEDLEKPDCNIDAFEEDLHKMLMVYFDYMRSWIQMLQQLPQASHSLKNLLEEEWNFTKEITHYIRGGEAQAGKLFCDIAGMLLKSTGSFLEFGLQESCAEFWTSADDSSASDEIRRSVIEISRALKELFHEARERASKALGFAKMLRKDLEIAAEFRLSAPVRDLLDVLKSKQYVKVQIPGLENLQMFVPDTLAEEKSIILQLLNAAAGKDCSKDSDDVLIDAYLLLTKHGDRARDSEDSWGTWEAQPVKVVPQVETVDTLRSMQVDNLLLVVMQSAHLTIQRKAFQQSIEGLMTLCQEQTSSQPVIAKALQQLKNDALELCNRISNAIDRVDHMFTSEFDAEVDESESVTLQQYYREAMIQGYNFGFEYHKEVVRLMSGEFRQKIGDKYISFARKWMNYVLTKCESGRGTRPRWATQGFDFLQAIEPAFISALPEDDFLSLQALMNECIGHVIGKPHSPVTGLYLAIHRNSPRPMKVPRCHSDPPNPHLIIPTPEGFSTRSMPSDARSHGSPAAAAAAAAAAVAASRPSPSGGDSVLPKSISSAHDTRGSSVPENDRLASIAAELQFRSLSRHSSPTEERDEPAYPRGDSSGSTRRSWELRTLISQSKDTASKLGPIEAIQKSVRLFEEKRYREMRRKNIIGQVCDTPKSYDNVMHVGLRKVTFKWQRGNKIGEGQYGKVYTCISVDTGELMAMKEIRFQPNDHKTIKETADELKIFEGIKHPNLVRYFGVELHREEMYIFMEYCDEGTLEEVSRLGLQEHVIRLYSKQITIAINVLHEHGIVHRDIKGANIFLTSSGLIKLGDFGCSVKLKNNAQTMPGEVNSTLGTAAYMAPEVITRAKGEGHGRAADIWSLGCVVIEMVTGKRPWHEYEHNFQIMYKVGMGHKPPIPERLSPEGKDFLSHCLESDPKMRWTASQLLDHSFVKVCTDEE
Procedure, shortened: (§1)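 Light and heavy SILAC HEK293T proteomes (2 mg/ml in kinase buffer) were pre-treated with DMSO or compound (50× stock in DMSO) for 30 min at 25° C, then mixed 1:1, reduced, alkylated and digested with trypsin/Lys-C. Desthiobiotin-labelled peptides were avidin-enriched and analysed by LC-MS/MS on an Orbitrap, top-10 data-dependent acquisition.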

[2] = target: T2, SMG1 (Serine/threonine-protein kinase SMG1) (Homo sapiens, UniProt Q96Q15); settings: site ATP; ATP 1 mM; Ketanserin, Ritanserin 100 μM; RF001 1 mM
T2 construct: Native kinases; endogenous in cells; host or cells: HEK293T soluble proteome
Procedure, shortened: as §1

[3] = target: T3, STK10 (Serine/threonine-protein kinase 10) (Homo sapiens, UniProt O94804); settings: site Lys2; ATP 1 mM; Ketanserin, Ritanserin 100 μM; RF001 1 mM
T3 construct: Native kinases; endogenous in cells; host or cells: HEK293T soluble proteome
T3 sequence (O94804 whole entry): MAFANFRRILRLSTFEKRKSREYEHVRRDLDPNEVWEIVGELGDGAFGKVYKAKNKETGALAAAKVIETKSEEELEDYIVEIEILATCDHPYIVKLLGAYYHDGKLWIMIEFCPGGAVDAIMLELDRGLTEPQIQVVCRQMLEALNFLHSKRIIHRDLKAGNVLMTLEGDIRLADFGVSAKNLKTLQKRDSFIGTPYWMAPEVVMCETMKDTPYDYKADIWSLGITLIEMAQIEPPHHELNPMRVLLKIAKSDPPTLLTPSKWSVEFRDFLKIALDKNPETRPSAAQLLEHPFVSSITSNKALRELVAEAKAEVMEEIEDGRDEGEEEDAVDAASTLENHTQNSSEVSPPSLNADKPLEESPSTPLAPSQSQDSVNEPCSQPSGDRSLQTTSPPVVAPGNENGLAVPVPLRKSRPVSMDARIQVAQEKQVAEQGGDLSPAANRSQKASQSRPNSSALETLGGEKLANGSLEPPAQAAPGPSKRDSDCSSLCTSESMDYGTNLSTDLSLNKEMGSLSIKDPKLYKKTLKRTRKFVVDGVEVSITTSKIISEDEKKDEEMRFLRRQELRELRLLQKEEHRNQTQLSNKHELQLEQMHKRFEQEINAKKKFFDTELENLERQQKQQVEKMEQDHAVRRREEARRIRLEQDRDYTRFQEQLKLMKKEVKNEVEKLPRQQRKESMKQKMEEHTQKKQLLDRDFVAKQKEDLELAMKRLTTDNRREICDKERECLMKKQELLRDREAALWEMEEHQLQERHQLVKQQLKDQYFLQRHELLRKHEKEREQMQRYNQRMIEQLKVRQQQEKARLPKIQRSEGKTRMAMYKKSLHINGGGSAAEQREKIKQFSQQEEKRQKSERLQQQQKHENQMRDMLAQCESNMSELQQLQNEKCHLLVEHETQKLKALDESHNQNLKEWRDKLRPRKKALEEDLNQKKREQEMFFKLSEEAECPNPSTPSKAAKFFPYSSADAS
Procedure, shortened: as §1

[4] = target: T4, FER (Proto-oncogene tyrosine-protein kinase FER) (Homo sapiens, UniProt P16591); settings: site Lys1 (K591); ATP 1 mM; Ketanserin, Ritanserin 100 μM; RF001 1 mM
T4 construct: measured against >50 native kinases quantified in HEK293T soluble proteomes; endogenous in cells; host or cells: HEK293T soluble proteome
T4 sequence (P16591 whole entry): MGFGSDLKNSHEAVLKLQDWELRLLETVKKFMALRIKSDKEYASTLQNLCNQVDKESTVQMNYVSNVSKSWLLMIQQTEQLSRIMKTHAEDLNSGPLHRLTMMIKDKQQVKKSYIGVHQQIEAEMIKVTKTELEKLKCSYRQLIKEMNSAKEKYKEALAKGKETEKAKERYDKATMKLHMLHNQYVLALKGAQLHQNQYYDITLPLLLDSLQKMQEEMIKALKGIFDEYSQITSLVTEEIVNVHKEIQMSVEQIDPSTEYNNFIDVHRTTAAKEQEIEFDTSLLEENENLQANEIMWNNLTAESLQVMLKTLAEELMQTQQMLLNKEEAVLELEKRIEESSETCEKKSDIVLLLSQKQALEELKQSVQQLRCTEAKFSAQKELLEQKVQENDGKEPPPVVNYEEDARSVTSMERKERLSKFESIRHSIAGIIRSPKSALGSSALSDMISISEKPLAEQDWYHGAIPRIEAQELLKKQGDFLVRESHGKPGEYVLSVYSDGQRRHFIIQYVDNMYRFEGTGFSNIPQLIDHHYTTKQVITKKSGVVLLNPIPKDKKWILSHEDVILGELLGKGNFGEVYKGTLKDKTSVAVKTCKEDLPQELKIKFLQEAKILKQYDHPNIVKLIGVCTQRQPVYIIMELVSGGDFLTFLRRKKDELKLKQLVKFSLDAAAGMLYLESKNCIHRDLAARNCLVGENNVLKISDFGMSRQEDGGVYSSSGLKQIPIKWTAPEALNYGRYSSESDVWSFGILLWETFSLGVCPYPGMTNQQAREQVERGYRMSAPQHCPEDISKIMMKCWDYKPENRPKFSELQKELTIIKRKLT
Procedure, shortened: as §1

[5] = target: T5, MP2K6 (Dual specificity mitogen-activated protein kinase kinase 6) (Homo sapiens, UniProt P52564); settings: site Lys1; ATP 1 mM; Ketanserin, Ritanserin 100 μM; RF001 1 mM
T5 construct: Native kinases; endogenous in cells; host or cells: HEK293T soluble proteome
T5 sequence (P52564 1-334): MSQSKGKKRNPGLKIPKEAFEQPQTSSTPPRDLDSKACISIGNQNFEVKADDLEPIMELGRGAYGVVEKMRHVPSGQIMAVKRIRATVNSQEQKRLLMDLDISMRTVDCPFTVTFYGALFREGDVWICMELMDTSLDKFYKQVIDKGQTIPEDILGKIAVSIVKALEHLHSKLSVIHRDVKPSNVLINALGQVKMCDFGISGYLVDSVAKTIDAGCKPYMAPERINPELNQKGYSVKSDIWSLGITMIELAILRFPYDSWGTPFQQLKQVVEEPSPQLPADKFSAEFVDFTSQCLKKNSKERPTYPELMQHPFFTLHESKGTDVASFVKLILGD
Procedure, shortened: as §1

[6] = target: T6, RAF1 (RAF proto-oncogene serine/threonine-protein kinase) (Homo sapiens, UniProt P04049); settings: site Lys2; ATP 1 mM; Ketanserin, Ritanserin 100 μM; RF001 1 mM
T6 construct: Native kinases; endogenous in cells; host or cells: HEK293T soluble proteome
T6 sequence (P04049 whole entry): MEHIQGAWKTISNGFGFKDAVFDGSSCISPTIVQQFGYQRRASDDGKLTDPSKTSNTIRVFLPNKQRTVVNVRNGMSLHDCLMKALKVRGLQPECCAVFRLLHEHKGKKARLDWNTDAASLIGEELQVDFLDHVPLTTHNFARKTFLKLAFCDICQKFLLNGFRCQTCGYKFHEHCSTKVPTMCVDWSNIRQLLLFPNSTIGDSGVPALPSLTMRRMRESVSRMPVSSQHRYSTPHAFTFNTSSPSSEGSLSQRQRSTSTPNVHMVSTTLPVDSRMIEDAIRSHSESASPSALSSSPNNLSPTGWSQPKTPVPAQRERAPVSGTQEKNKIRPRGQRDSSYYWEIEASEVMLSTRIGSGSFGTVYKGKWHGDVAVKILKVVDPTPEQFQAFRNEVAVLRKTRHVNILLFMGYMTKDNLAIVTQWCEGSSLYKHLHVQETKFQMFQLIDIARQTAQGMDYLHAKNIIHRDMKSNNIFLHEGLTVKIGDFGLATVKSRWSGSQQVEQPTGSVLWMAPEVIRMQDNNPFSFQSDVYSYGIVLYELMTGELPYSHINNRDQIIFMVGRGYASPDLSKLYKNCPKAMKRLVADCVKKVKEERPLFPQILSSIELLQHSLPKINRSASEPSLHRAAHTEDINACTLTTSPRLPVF
Procedure, shortened: as §1

| Compound | SILAC ratio, M3K4 probe-modified peptide [1] | SILAC ratio, SMG1 probe-modified peptide [2] | SILAC ratio, STK10 probe-modified peptide [3] | SILAC ratio, FER probe-modified peptide [4] | SILAC ratio, MP2K6 probe-modified peptide [5] | SILAC ratio, RAF1 probe-modified peptide [6] |
| --- | --- | --- | --- | --- | --- | --- |
| O=C(c1ccc(F)cc1)C1CCN(CCn2c(=O)[nH]c3ccccc3c2=O)CC1 [Ketanserin] | 1.2 | 1.3 | 1.3 | 1.4 | 1.4 | 1.4 |
| Fc1ccc(C(=C2CCNCC2)c2ccc(F)cc2)cc1 [RF001, 4-(Bis(4-fluorophenyl)methylene) piperidine] | 0.8 | 1.0 | 1.1 | 1.2 | 1.1 | 2.1 |
| Cc1nc2sccn2c(=O)c1CCN1CCC(=C(c2ccc(F)cc2)c2ccc(F)cc2)CC1 [Ritanserin] | 1.9 | 1.7 | 1.7 | 7.9 | 2.2 | 3.9 |
